We go through two compounds from article PMC10220892 (Pharmaceutics, 2023).

Converted amounts (≈) assume the structure as drawn.

In data set [1] the test system is U251 cells. Nature of the data set: MTT cell viability assay. As to conditions: Homo sapiens, U-251, 72 h. Format: cell-based. As to the method:
(§1) U87MG, U251, U87MG-EGFRvIII, and U87MG-TMZR cells were cultured in DMEM supplemented with 10% FBS and plated at low density in 96-well plates (2000 cells per well). Then, the cells were treated with different concentrations of gefitinib or compound SMUZ106 for a period of 72 h. MTT (5 mg/mL) was added to each well, and the cells were incubated for another 4 h at 37 °C. The optical density value at 570 nm was measured using a microplate reader (TECAN, Männedorf, Switzerland).
A general note: Tetrazolium dyes change colour on reduction, which living cells bring about.

For data set [2], the system named is U87MG cells. Nature of the data set: MTT cell viability assay. It is filed as cell-based. As to conditions: Homo sapiens, U-87 MG, 72 h. As for the experimental part:
as §1

The test system of data set [3] is U87MG-EGFRvIII cells. Kind of data set: MTT cell viability assay. Format: cell-based. As to conditions: 72 h. As for the experimental part: as §1
For data set [4], the system named is U87MG-TMZR cells (TMZ-resistant U87MG cells). Nature of the data set: MTT cell viability assay. Format: cell-based. As to conditions: Homo sapiens, U-87 MG, 72 h. As to the method: as §1
Data set [5] deals with U251 cells. Kind of data set: Colony formation assay. Format: cell-based. As to conditions: 1, 3 and 10 μM. As for the experimental part:
(§2) U87MG, U251, U87MG-EGFRvIII, and U87MG-TMZR cells were trypsinized, and suspended in 6-well plates. After a period of 24 h, the cells were exposed to compound SMUZ106 with different concentrations (1, 3, and 10 μM), and the U87MG-TMZR cells were exposed to compound SMUZ106 with different concentrations (3, 10, and 30 μM) for 72 h. After 10–14 days of cultivation, the cells were stained with 0.4% trypan blue to visualize the formed colony and to count the number of colonies by Enzyme-Linked Immunospot Analyzer (CTL, Shaker Heights, OH, USA).

In data set [6] the test system is U87MG cells. Kind of data set: Colony formation assay. Format: cell-based. As to conditions: 1, 3 and 10 μM. As for the experimental part:
as §2

Data set [7] concerns U87MG-EGFRvIII cells. Nature of the data set: Colony formation assay. Format: cell-based. As to conditions: 1, 3 and 10 μM. As for the experimental part: as §2
Data set [8] relates to U87MG-TMZR cells. Nature of the data set: Colony formation assay. Format: cell-based. As to conditions: 3, 10 and 30 μM. As to the method:
as §2

In data set [9] the test system is U87MG-EGFRvIII cells. Nature of the data set: Cell cycle analysis by flow cytometry (PI). It is filed as cell-based. As to conditions: 48 h; for cells in S phase: control 35.68%; for cells in G0/G1 phase: control 50.82%. As for the experimental part: (§3) U87MG-EGFRvIII cells were seeded into 6-well plates and treated with different concentrations of the compound SMUZ106 (2.5, 5, and 10 μM) for 48 h. Following the treatment, the cells were harvested, washed twice with cold PBS, and fixed overnight at 4 °C in 70% ethanol, then stained with PI solution to analyze the cell cycle distribution via flow cytometry. The results were determined using the ModFit LT 5.0 software. Each assay was performed in triplicates.
For orientation: Flow cytometry measures light scatter and fluorescence of single cells or particles in a stream.

Data set [10] concerns U87MG-EGFRvIII cells. Kind of data set: Apoptosis analysis by flow cytometry (Annexin V-FITC/PI). Format: cell-based. As to conditions: 48 h. As for the experimental part: as §3
To perform the apoptosis analysis, after being washed with PBS, the cells were resuspended in 195 μL Annexin V-FITC binding solution, and then 5 µL of Annexin V-FITC was added, followed by 10 µL PI. Following incubation at room temperature for 20 min in the dark, cell apoptosis rates were detected by flow cytometry. The data were analyzed using FlowJo_V10 software.

In data set [11] the test system is phospho-EGFR. Nature of the data set: Western blotting of EGFR signaling in U87MG cells. Format: cell-based. As to conditions: 2.5, 5 and 10 μM, 48 h. As for the experimental part: (§4) The GBM cells were exposed to compound SMUZ106 at different concentrations (2.5, 5, and 10 μM) for 48 h, and the total proteins were extracted from the cells using RIPA lysis buffer. The concentration of the obtained protein was determined using the BCA Protein Assay Kit (Thermo Fisher, Waltham, MA, USA). Equivalent protein samples (30 μg) were subjected to SDS-PAGE gels and transferred to NC membranes (PALL, Port Washington, NY, USA). Then, the membranes were blocked with 5% milk in TBST for 1 h at RT and probed with primary antibodies diluted overnight at 4 °C, followed by incubation with appropriate secondary antibodies for 1 h at RT. Finally, the protein bands were visualized and scanned using an imaging system (ProteinSimple, Santa Clara, CA, USA).
(In general: Immunoblotting shows a protein as a band on a membrane.)

The subject of data set [12] is phospho-EGFR. Kind of data set: Western blotting of EGFR signaling in U87MG-EGFRvIII cells. It is filed as cell-based. As to conditions: 2.5, 5 and 10 μM, 48 h. As for the experimental part:
as §4

Data set [13] addresses T1, EGFR (Homo sapiens, UniProt P00533). Kind of data set: HTRF KinEASE-TK single-point kinase assay. Format: biochemical. As to conditions: read-out: inhibition rate EGFR. As to the method: (§5) IC50 determinations for EGFR were performed with the Z’-LYTE technology platform (Life Technologies), according to the manufacturer’s instructions. The enzyme activity assays of compound SMUZ106 were performed at a single-point concentration (1 μM) against 76 kinases by using the HTRF KinEASE-TK assay according to the manufacturer’s instructions.

Data set [14] concerns the target T2, HER2 (Homo sapiens, UniProt P04626). Kind of data set: HTRF KinEASE-TK single-point kinase assay. It is filed as biochemical. As to conditions: read-out: inhibition rate HER2. As for the experimental part: as §5
Data set [15] deals with T3, HER4 (Homo sapiens, UniProt Q15303). Kind of data set: HTRF KinEASE-TK single-point kinase assay. Format: biochemical. As to conditions: read-out: inhibition rate HER4. As to the method: as §5
T3 sequence (Q15303 26-1308): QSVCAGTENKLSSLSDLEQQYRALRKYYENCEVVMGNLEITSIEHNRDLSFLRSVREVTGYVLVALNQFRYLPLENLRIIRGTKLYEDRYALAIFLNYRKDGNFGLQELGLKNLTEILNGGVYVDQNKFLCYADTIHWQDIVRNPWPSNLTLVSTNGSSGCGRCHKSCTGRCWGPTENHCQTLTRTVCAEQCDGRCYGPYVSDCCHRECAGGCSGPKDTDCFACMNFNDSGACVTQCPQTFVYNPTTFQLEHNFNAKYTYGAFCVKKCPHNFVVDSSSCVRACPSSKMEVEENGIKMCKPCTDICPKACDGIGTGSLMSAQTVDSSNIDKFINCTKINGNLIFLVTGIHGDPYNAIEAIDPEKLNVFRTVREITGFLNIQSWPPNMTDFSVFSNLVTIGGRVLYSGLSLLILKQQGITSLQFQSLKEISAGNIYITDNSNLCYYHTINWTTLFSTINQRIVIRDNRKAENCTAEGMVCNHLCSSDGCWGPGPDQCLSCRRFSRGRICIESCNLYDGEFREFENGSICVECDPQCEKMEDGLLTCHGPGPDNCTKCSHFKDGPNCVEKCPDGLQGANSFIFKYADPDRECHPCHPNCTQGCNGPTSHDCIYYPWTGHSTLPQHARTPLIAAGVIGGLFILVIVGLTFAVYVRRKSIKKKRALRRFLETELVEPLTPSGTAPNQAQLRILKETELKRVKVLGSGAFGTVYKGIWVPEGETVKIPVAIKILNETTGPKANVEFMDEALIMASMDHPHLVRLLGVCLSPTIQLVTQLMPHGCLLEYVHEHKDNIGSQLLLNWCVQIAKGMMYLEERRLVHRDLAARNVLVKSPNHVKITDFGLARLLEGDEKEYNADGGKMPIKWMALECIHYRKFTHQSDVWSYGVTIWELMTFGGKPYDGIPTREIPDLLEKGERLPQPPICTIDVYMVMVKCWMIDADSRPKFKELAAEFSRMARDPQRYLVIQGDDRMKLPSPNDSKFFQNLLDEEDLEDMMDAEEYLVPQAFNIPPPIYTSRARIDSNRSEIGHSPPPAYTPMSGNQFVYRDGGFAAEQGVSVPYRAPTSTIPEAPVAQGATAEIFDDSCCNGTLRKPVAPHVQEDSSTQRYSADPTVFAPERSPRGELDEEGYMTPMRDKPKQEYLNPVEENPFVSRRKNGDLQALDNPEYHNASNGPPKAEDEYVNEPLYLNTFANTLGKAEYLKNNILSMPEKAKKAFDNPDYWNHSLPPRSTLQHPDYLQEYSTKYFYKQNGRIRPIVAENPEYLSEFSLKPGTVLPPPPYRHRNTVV
Data set [16] relates to panel of 76 tyrosine kinases. Nature of the data set: Kinase selectivity screen (HTRF KinEASE-TK). As to conditions: 1 μM, 76 kinases. Format: biochemical. As to the method: as §5
Data set [17] can be described thus: Solubility by HPLC. It is filed as physicochemical. As for the experimental part: The solubility of the compound SMUZ106 and its related salts in artificial gastric juice, artificial intestinal fluid, and physiological saline were determined by HPLC. […] Therefore, SMUZ106 hydrochloride was selected for the pharmacokinetic analysis.
The nature of data set [18]: Pharmacokinetics study in mice. Format: in vivo. As to conditions: male, Kunming, mouse, plasma. As to the method: A total of 72 male Kunming mice with an average weight of 20 g were purchased from Southern Medical University (Guangzhou, China) and divided into three groups, with […]. SMUZ106 was dissolved in 0.5% CMC-Na to prepare a suspension for oral administration (100 mg/kg). […] For the intravenous and oral administration, blood samples (0.5 mL) were collected from the mice’s orbital veins and placed into heparinized tubes at 0.25, 0.5, 1, 2, 6, 8, 12, and 24 h following administration. After centrifuging all the samples at 8000 r/min for 5 min, the supernatants were stored at −80 °C until analysis. Subsequently, the plasma samples were transferred to a clean 1.5 mL centrifuge tube and spiked with 100 μL of the internal standard solution (gefitinib, 1.0 μg/mL). Methyl alcohol was then added to the mixture, vortexed for 2 min, and centrifuged at 13,000 r/min for 30 min. […] A 10 µL aliquot of each sample was injected into the LC-MS/MS system for analysis. The pharmacokinetic parameters, such as half-life (t1/2), time of peak plasma concentration (Tmax), maximum plasma concentration (Cmax), mean residence time (MRT), area under the concentration–time curve (AUC), and bioavailability (F), were determined using DAS 2.0 software.

Data set [19] has as its target T1, EGFR. Set-up: method as in PMID 27132165. As to conditions: read-out: IC50 EGFR kinase; cited from earlier work.
Data set [20] concerns the target T2, HER2. On the set-up: method as in PMID 27132165. As to conditions: Figure S1; read-out: IC50 HER2 kinase; cited from earlier work.
Data set [21] concerns the target T3, HER4. On the set-up: method as in PMID 27132165. As to conditions: Figure S1; read-out: IC50 HER4 kinase; cited from earlier work.

T2 sequence (P04626 23-1255): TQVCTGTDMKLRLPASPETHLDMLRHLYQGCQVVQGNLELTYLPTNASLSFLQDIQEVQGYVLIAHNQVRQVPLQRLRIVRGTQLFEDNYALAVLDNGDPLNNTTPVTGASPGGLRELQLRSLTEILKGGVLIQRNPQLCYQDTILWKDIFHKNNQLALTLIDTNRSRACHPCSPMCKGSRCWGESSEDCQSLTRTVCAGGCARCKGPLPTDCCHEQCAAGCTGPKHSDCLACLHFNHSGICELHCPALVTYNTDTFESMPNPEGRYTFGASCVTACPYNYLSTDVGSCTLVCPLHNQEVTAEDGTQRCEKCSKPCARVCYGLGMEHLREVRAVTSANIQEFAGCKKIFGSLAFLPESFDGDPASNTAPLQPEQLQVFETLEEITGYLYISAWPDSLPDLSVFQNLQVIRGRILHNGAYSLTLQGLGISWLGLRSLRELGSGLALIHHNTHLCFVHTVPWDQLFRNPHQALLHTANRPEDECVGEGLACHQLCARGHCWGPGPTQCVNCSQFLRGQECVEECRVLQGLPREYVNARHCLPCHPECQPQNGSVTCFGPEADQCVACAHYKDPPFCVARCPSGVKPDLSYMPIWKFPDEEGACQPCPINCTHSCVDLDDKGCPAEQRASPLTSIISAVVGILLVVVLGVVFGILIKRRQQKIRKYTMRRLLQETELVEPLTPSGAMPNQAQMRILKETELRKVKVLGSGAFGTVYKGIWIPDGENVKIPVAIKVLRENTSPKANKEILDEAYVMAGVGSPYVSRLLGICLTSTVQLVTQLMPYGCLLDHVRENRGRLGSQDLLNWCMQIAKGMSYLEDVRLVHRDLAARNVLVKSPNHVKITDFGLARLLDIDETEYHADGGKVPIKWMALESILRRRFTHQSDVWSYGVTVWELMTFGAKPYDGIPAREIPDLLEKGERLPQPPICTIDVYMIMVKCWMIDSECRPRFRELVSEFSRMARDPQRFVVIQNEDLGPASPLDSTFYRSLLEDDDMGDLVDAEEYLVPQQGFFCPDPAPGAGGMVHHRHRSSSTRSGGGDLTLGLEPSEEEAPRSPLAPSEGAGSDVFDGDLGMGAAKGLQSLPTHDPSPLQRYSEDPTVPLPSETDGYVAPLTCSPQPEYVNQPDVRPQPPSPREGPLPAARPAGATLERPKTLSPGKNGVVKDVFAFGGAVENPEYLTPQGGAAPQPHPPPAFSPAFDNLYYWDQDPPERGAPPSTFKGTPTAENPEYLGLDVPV
T1 sequence (P00533 25-1210): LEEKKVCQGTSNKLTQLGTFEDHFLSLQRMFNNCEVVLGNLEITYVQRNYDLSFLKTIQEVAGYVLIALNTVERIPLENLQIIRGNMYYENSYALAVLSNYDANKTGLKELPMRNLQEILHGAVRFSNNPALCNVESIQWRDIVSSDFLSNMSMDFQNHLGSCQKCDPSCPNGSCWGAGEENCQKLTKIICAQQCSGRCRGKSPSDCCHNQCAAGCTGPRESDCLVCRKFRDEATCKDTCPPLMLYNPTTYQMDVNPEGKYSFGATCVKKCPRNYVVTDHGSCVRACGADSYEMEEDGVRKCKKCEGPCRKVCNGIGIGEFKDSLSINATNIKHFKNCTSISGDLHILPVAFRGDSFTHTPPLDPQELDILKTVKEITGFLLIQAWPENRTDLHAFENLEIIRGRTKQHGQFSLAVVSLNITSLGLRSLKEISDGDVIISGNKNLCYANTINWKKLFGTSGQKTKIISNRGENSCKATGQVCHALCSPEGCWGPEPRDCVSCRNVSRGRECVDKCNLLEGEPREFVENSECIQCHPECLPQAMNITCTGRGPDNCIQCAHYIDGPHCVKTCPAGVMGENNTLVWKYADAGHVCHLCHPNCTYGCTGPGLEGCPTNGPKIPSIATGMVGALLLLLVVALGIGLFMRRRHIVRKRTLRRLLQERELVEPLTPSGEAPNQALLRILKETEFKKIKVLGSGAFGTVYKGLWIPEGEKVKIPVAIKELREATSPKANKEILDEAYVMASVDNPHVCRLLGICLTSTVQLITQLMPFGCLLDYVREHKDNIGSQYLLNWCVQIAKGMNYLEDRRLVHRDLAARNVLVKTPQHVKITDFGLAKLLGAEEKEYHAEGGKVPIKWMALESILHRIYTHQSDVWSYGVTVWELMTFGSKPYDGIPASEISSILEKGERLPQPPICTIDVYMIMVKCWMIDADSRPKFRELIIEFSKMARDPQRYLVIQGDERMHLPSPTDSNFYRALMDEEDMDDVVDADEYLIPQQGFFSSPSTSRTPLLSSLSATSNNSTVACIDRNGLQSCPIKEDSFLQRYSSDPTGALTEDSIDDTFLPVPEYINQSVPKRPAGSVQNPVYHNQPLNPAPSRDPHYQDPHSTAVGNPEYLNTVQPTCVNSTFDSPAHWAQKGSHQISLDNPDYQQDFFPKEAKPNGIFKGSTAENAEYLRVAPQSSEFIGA

In the case of `c1cnc2ccc(Nc3ncnc4ccc(-c5cnn(C6CCNCC6)c5)cc34)cc2c1` [SMUZ106, 6-(1-(piperidin-4-yl)-1H-pyrazol-4-yl)-N-(quinolin-6-yl)quinazolin-4-amine], the IC50 (usually the concentration needed to halve the response being measured) in data set [1] is 10.3 µM; in data set [2], 7.43 µM; in data set [3] it was 4.36 µM; in [4], 7.86 µM; in [19] it was 0.0441 µM; in data set [20], 0.874 µM. Besides, the IC50 in data set [21] was 0.93 µM. The “clonogenicity (number of colonies)” value in data set [5], in data set [6] and in [7] was “significantly decreased the clonogenicity” in each case. The clone formation entry in data set [8] was “could inhibit the proliferation of TMZ-resistant U87MG cells”. The “cells in S phase” value in [9] (2.5 μM) turned out to be 27.08%; in data set [9] (5 μM), 24.01%; in data set [9] (10 μM), 20.78%. Further, the entries for the “cells in G0/G1 phase” value in data set [9] (2.5 μM), in [9] (5 μM) and in data set [9] (10 μM) were 54.44%, 58.17% and 62.50%, respectively. In addition, the “percentage of apoptotic cells” value in data set [10] (2.5 μM) was found to be 2.34%; in [10] (5 μM), 2.70%; in data set [10] (10 μM), 3.02%. Also, the “phosphorylation levels of AKT and Erk1/2” value in data set [11] and in data set [12] was “did not significantly downregulate” throughout. For the same compound, the “protein expression level of total EGFR” value in data set [11] and in data set [12] was “remained unchanged” each time. Moreover, the “protein level of phospho-EGFR” value in data set [11] and in data set [12] was “decreased dose dependently” each time. Besides, the inhibition – broadly, how much of the control response was suppressed – at 1 µM in [13] turned out to be 98.7%; in data set [14], 75.4%; in data set [15], 87.3%. The kinase selectivity result in data set [16] was “excellent selectivity to EGFR”. Besides, the solubility (usually how much of the substance goes into solution per volume) in data set [17] (artificial gastric juice, simulated gastric fluid) was 16.8 mg/mL (≈ 39.8 mM); in data set [17] (artificial intestinal juice, fassgf or other biorelevant), 0.22 mg/mL (≈ 0.522 mM); in data set [17] (medium not named in the sentence (values match artificial gastric juice of Table S2)), 16.8 mg/mL (≈ 39.8 mM); in data set [17] (normal saline, saline or isotonic), 3.69 mg/mL (≈ 8.75 mM). The bioavailability (usually the share of a dose that reaches the circulation, judged against a reference dose that is usually intravenous) in [18] (oral, p.o. 100 mg/kg vs i.v. 25 mg/kg, read-out: F (absolute bioavailability)) stood at 29%. Also, in data set [18] (po, p.o. 100 mg/kg), the AUC(0-inf) – broadly, total exposure, with the tail of the curve extrapolated – is 7510 ± 1060 ng·h/mL. For the same compound, the Cmax (in general, the maximum level reached in the sampled fluid or tissue) in data set [18] (po, p.o. 100 mg/kg) was found to be 1190 ± 464 ng/mL. The Tmax – broadly, the time at which the peak concentration occurs – in [18] (po, p.o. 100 mg/kg) came out at 6 h. For the same compound, in [18] (po, p.o. 100 mg/kg), the half-life (commonly how long it takes for the measured level to halve) was 0.87 ± 0.01 h. In data set [18] (po, p.o. 100 mg/kg, read-out: MRT0→t), the MRT last was 6.32 ± 0.22 h.
As for `Cn1nnc2c(C(N)=O)ncn2c1=O` [TMZ, temozolomide, reference compound], the IC50 came to 501 µM in data set [2] and 2040 µM in [4].
